Measurements reported in patent US11497694B2, “Oral care compositions” (Colgate-Palmolive Company, priority 2017, dated 2022).

Test system: bacteria
Test: Stabilizing effect of lysine on CPC-STPP / CPC-DV interaction (bacterial viability)
Format: cell-based
Conditions: PBS 100
Excerpt: Compositions were created to test the stabilizing effect that lysine had on the CPC and DV polymer. Mouthwashes were created according to the method of Example 1. Each sample was created with CPC and either STPP or DV. The compositions also contained varied amounts of lysine. The samples created are summarized below.

Q: Which “Bacterial Viability at pH 4.6 (%)” value (CPC-DV mouthwashes with varied lysine, pH 4.6) does the source give for `CCO` [Ethanol] here?
A: 11%

Q: What about the “Bacterial Viability at pH 6.0 (%)” value (CPC-DV mouthwashes with varied lysine, pH 6.0) of the same molecule?
A: 19%

Q: And the “Bacterial Viability (%)” value (CPC-STPP mouthwashes with varied lysine)?
A: 23%
